Drawing on ChEMBL document CHEMBL2169830, “Identification, synthesis, and biological evaluation of the metabolites of 3-amino-6-(3'-aminopropyl)-5H-indeno[1,2-c]isoquinoline-5,11-(6H)dione (AM6-36), a promising rexinoid lead compound for the development of cancer chemotherapeutic and chemopreventive agents” (J Med Chem, 2012), this text covers inhibition, IC50 and viability for 19 molecules.

SMILES strings stand for the structures. Bounds are passed on as bounds.

Common to all, as to type: cell-based
The subject of one series is HEK293. In words: Inhibition of TNFalpha-induced human NFkappaB activity in HEK293 cells at 50 uM incubated for 6 hrs followed by compound wash out measured after 5 mins by luciferase assay.
Series [1] is described as follows: Inhibition of TNFalpha-induced human NFkappaB activity in HEK293 cells incubated for 6 hrs followed by compound wash out measured after 5 mins by luciferase assay.
Series [2] can be described thus: Cytotoxicity against human HEK293 cells assessed as cell survival at 50 uM relative to control. To be noted: read-out: Survival.
The nature of series [3]: Cytotoxicity against african green monkey COS1 cells assessed as cell survival at 50 uM relative to control. To be noted: chlorocebus aethiops, COS-1 cells; read-out: Survival.

For the molecule `CNCCCn1c2c(c3ccc(N)cc3c1=O)C(O)c1ccccc1-2` (stereo not given), the inhibition with HEK293 was determined as 83.7%. In addition, half-maximal inhibition in series [1] (IC50) was put at 0.6 µM. In addition, the viability at 50 µM in series [2] stood at 90.1%; in series [3] it was 84.1%.

Molecule `O=C1c2ccccc2-c2c1c1ccc([N+](=O)[O-])cc1c(=O)n2CCCO` returned an inhibition in the series on HEK293 of 72.8%. The molecule also gave an IC50 in series [1] of 7.3 µM. The viability at 50 µM in series [2] was 114%; in series [3], 91.4%.

The molecule `CC(C)(C)OC(=O)NCCCn1c2c(c3ccc(N)cc3c1=O)C(=O)c1ccccc1-2` displayed an inhibition in the series with HEK293 of 0%. Also, the values for the viability at 50 µM in series [2] and in series [3] were 107% and 104%, respectively.

For the molecule `CNc1ccc2c3c(n(CCCNC(=O)OC(C)(C)C)c(=O)c2c1)-c1ccccc1C3=O`, the inhibition with HEK293 is 53.9%. Moreover, the viability at 50 µM in series [2] stood at 68.6%; in series [3], 94.8%.

The molecule `CNc1ccc2c3c(n(CCCNC(=O)OC(C)(C)C)c(=O)c2c1)-c1ccccc1C3O` (stereo not given) came in with an inhibition in the series with HEK293 of 83.4%. This molecule also showed an IC50 in series [1] of 0.4 µM. For the same molecule, the viability at 50 µM amounted to 90.1% in series [2] and 67.5% in series [3].

Take `CN(C)c1ccc2c3c(n(CCCNC(=O)OC(C)(C)C)c(=O)c2c1)-c1ccccc1C3=O`: the inhibition in the series with HEK293 was 25.9%. Besides, the figures for the viability at 50 µM in series [2] and in series [3] were 97.6% and 102%, respectively.

In turn, `CC(=O)NCCCn1c2c(c3ccc([N+](=O)[O-])cc3c1=O)C(=O)c1ccccc1-2` returned an inhibition with HEK293 of 87.4%. Further, the half-inhibitory concentration (IC50) in series [1] is 38.8 µM. For the same molecule, the viability at 50 µM in series [2] worked out at 69.1%; in series [3], 99.4%.

Take `Cc1ccc(S(=O)(=O)N[C@@H](Cc2ccccc2)C(=O)CCl)cc1` [TPCK]: in series [1], the IC50 turned out to be 5.1 µM.

As to `CC(=O)Nc1ccc2c3c(n(CCCN)c(=O)c2c1)-c1ccccc1C3O` (stereo not given), the inhibition in the series with HEK293 was 0%. Besides, the values for the viability at 50 µM in series [2] and in series [3] were 99.2% and 83.7%, respectively.

`Cc1ccc(S(=O)(=O)/C=C/C#N)cc1` gave a concentration for half-maximal inhibition (IC50) in series [1] of 2.01 µM.

Molecule `NCCCn1c2c(c3ccc(N)cc3c1=O)C(O)c1ccccc1-2` (stereo not given) had an inhibition in the series with HEK293 of 53.1%. Moreover, the viability at 50 µM was below 50% in series [2] and 87.5% in series [3].

`CC(C)(C)OC(=O)NCCCn1c2c(c3ccc([N+](=O)[O-])cc3c1=O)C(=O)c1ccccc1-2` returned an inhibition in the series with HEK293 of 0%. The values for the viability at 50 µM in series [2] and in series [3] were 101% and 106%, respectively.

In the series with HEK293, `CN(C)c1ccc2c3c(n(CCCN)c(=O)c2c1)-c1ccccc1C3=O` came in with an inhibition of 86.3%. In series [1], the IC50 turned out to be 32.3 µM. The viability at 50 µM in series [2] was 110%; in series [3] it was below 50%.

With `Nc1ccc2c3c(n(CCCO)c(=O)c2c1)-c1ccccc1C3=O`, the inhibition with HEK293 worked out at 53.2%. Besides, the viability at 50 µM in series [2] stood at 116%; in series [3] it was 85.9%.

`CNCCCn1c2c(c3ccc([N+](=O)[O-])cc3c1=O)C(=O)c1ccccc1-2` registered an inhibition in the series on HEK293 of 92.4%. Moreover, the IC50 in series [1] stood at 3.7 µM. Further, the values for the viability at 50 µM in series [2] and in series [3] were 79.7% and below 50%, respectively.

Turning to `Nc1ccc2c3c(n(CCCO)c(=O)c2c1)-c1ccccc1C3O` (stereo not given), the inhibition in the series on HEK293 turned out to be 57.8%. In series [1], this molecule registered an IC50 of 49.3 µM. Moreover, the viability at 50 µM in series [2] worked out at 118%; in series [3] it was 86.9%.

`CC(=O)Nc1ccc2c3c(n(CCCN=[N+]=[N-])c(=O)c2c1)-c1ccccc1C3=O` came in with an inhibition in the series with HEK293 of 0%. The values for the viability at 50 µM in series [2] and in series [3] were 115% and 93.1%, respectively.

As for `CC(=O)Nc1ccc2c3c(n(CCCO)c(=O)c2c1)-c1ccccc1C3=O`, in the series with HEK293, the inhibition was 53.9%. The viability at 50 µM came to 128% in series [2] and 90.6% in series [3].

In the case of `Nc1ccc2c3c(n(CCCCl)c(=O)c2c1)-c1ccccc1C3=O`, the inhibition with HEK293 is 0%. Also, the viability at 50 µM in series [2] worked out at 91.4%; in series [3], 102%.
